Test results as given in PubChem BioAssay (NCI).
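Cells were grown in 96-well plates and exposed to each compound for 48 hours at five concentrations; endpoints were interpolated linearly between bracketing concentrations, or set to the highest concentration if not reached. The concentration for 50% growth inhibition is given as GI50. The concentration for full growth arrest is given as TGI.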

How the values were obtained:
Assay in all cases: NCI tumour cell line growth inhibition, 48 h
SW-620 colon = tested on: SW-620 colon
MDA-MB-231 breast = tested on: MDA-MB-231 breast
HL-60(TB) leukemia = tested on: HL-60(TB) leukemia
OVCAR-3 ovarian = tested on: OVCAR-3 ovarian
IGROV1 ovarian = tested on: IGROV1 ovarian
HOP-92 NSCLC = tested on: HOP-92 NSCLC
A498 renal = tested on: A498 renal
UACC-62 melanoma = tested on: UACC-62 melanoma
K-562 leukemia = tested on: K-562 leukemia
UACC-257 melanoma = tested on: UACC-257 melanoma

| Compound | GI50 (SW-620 colon) | TGI (SW-620 colon) | GI50 (MDA-MB-231 breast) | TGI (MDA-MB-231 breast) | GI50 (HL-60(TB) leukemia) | TGI (HL-60(TB) leukemia) | GI50 (OVCAR-3 ovarian) | TGI (OVCAR-3 ovarian) | GI50 (IGROV1 ovarian) | TGI (IGROV1 ovarian) | GI50 (HOP-92 NSCLC) | TGI (HOP-92 NSCLC) | GI50 (A498 renal) | TGI (A498 renal) | GI50 (UACC-62 melanoma) | TGI (UACC-62 melanoma) | GI50 (K-562 leukemia) | TGI (K-562 leukemia) | GI50 (UACC-257 melanoma) | TGI (UACC-257 melanoma) |
| --- | --- | --- | --- | --- | --- | --- | --- | --- | --- | --- | --- | --- | --- | --- | --- | --- | --- | --- | --- | --- |
| FC(F)(F)c1ccc(-c2cnc(-n3cc(COCCN4CCCCC4)nn3)nc2NC2CCCCCC2)cc1 | 3.79 µM | 7.95 µM | 3.47 µM | 6.86 µM | 3.84 µM | 8.26 µM | 3.98 µM | 7.48 µM | 3.9 µM | 10.2 µM | 0.523 µM | 3.37 µM | 3.56 µM | 7.04 µM | 3.88 µM | 7.6 µM | 1.75 µM | 7.21 µM | – | – |
| Cc1cc(Nc2nc(-c3cccnc3)nc3ccccc23)n[nH]1 | 1.09 µM | > 100 µM | 17.3 µM | > 100 µM | 3.27 µM | 49 µM | 3.74 µM | > 100 µM | 1.2 µM | > 40.6 µM | 1.62 µM | 6.63 µM | 0.183 µM | 0.985 µM | 0.943 µM | 35.6 µM | 3.07 µM | > 100 µM | 42.2 µM | > 100 µM |
| Brc1ccc2[nH]cc(-c3nc(-c4c[nH]c5ncccc45)cs3)c2c1 | 3.79 µM | 14.1 µM | 1.59 µM | 5.99 µM | 4.29 µM | > 100 µM | 5.48 µM | 18.6 µM | 3.17 µM | 23 µM | 1.98 µM | 6.89 µM | 1.94 µM | 10.9 µM | 3.64 µM | 16.6 µM | 2.71 µM | > 100 µM | 2.5 µM | 7.26 µM |
| CCC(c1ccc(OC)cc1)C(CC)c1ccc(O)c(CN2CCN(C)CC2)c1 (stereo unspecified) | 3.15 µM | 10 µM | 3.7 µM | 15.1 µM | 2.62 µM | 5.9 µM | 4.1 µM | 14.3 µM | 5.4 µM | 18 µM | 2 µM | 9.64 µM | 4.13 µM | 16.1 µM | 1.99 µM | 4.16 µM | 2.71 µM | 14.8 µM | 2.1 µM | 4.97 µM |
| COc1ccc(C(c2ccc(OCCN(C)C)cc2)c2cc3ccccc3c3ccccc23)cc1 (stereo unspecified) | 1.69 µM | 3.31 µM | 1.68 µM | 3.22 µM | 1.89 µM | 3.75 µM | 1.66 µM | 3.07 µM | 1.68 µM | 3.3 µM | 1.31 µM | 2.64 µM | 0.536 µM | 20.9 µM | 1.81 µM | 3.52 µM | 1.49 µM | 3.41 µM | – | – |
| COc1cccc(-c2nn(-c3ccccc3)cc2-c2ccnc(NCCNC(=O)Nc3cccc(C(F)(F)F)c3)c2)c1 | 1.91 µM | 3.81 µM | 1.97 µM | 4.58 µM | 1.54 µM | 4.23 µM | 1.99 µM | 4.32 µM | 2.88 µM | 9.34 µM | 1.46 µM | 3.28 µM | 2.49 µM | 8.37 µM | 1.85 µM | 3.73 µM | 2.13 µM | 4.83 µM | 2.14 µM | 4.81 µM |
| CC(=O)N1N=C(c2ccc(Nc3ccnc4cc(Cl)ccc34)cc2)CC1c1ccc(Cl)cc1 (stereo unspecified) | > 100 µM | > 100 µM | > 100 µM | > 100 µM | 3.56 µM | > 100 µM | 7.19 µM | > 100 µM | > 100 µM | > 100 µM | > 100 µM | > 100 µM | > 100 µM | > 100 µM | 2.95 µM | > 100 µM | – | – | > 100 µM | > 100 µM |
| COc1cc(-c2cc(-c3ccc(Nc4ccnc5cc(Cl)ccc45)cc3)nc(N3CCOCC3)n2)cc(OC)c1OC | 1.28 µM | 3.45 µM | 1.81 µM | 4 µM | 5.99 µM | 82.1 µM | 1.89 µM | 3.67 µM | 1.91 µM | 4.03 µM | 1.85 µM | 4.81 µM | 28.2 µM | 74.4 µM | 1.98 µM | 3.83 µM | 0.882 µM | 10.4 µM | – | – |
| COc1cccc(/C=N/NC(=S)NC2CC3CCC2C3)c1O (stereo unspecified) | 13.7 µM | > 100 µM | 4.88 µM | 21.9 µM | 16.6 µM | 60.3 µM | 3.07 µM | 9.45 µM | 10 µM | 35.1 µM | – | – | 3.18 µM | 12.9 µM | 10.8 µM | 50.1 µM | 7.62 µM | > 100 µM | 15.1 µM | 38.7 µM |
| N[C@@H]1C(=O)N2C(C(=O)OC(c3ccccc3)c3ccccc3)=C(CCl)CS[C@H]12 | 36.6 µM | > 100 µM | 25.2 µM | 63.1 µM | 2.46 µM | > 38.3 µM | 26 µM | 75.6 µM | 47.4 µM | > 100 µM | 38.3 µM | > 71.4 µM | > 100 µM | > 100 µM | 42.7 µM | > 91.2 µM | 15.4 µM | > 89.2 µM | > 100 µM | > 100 µM |
| O=C1C2=C(c3ccccc31)C(c1ccccc1)N1C(=O)CSC1=N2 (stereo unspecified) | – | > 100 µM | – | > 100 µM | – | 95.8 µM | – | > 100 µM | – | > 100 µM | – | > 100 µM | – | > 100 µM | – | > 100 µM | – | > 100 µM | – | > 100 µM |
| Oc1ccc(O)c(-c2cc(-c3ccc(Cl)cc3)nn2-c2ccccc2)c1 | 3.81 µM | 18.4 µM | 2.33 µM | 6.82 µM | 5.71 µM | 64.8 µM | 14.5 µM | 30.7 µM | 9.95 µM | > 100 µM | 2.71 µM | 22.9 µM | 0.755 µM | 13.8 µM | 2.63 µM | 7.88 µM | 3.23 µM | 12.1 µM | 4.95 µM | 19.1 µM |
| COc1ccccc1C1=C(Nc2ccccc2)C(=O)NC1=O | > 25 µM | > 25 µM | > 25 µM | > 25 µM | > 25 µM | > 25 µM | > 25 µM | > 25 µM | > 25 µM | > 25 µM | – | – | > 25 µM | > 25 µM | > 25 µM | > 25 µM | > 25 µM | > 25 µM | – | – |
